Data as given in EP3538062B1, “ASSOCIATION CONSISTING OF INOSITOL AND ARGININE FOR MAINTAINING HOMEOSTASIS OF THE HAIR AND SCALP” (Unifarco S.p.A., priority 2016, dated 2018).
Values joined by “and” are separate entries in the source; they are usually repeats but may differ in a detail not shown here. Equal values may be shown once.

Key:
Format in all cases: cell-based, human
[1] = system: co-spheroidal culture DPF-ORSK; experiment: Morphological evaluation of proto-follicle microtissues by H&E staining; settings: Inositol 0.5%, Inositol 0.25% + L-arginine 0.25%
Description: (§1) The reconstituted proto-follicle was obtained by using fibroblast cells and human keratinocytes using the Gravity^PLUS™ method, a system developed by InSphero (InSphero AG, Zurich, Switzerland), which allows the formation of spheroids or micro-tissues of homogeneous size using the hanging drops technology. The micro-tissues were transferred to Gravity^TRAP plates for treatment and control of culture conditions: 37 °C incubator, 5% CO2, suitably saturated atmosphere of the culture medium.
(§2) In order to assess the biological effect of each of the above compositions on the micro-tissue cultures in question, the following parameters were measured: • Quantification of ATP, as a marker of cell viability. • Morphological evaluation during culture of the proto-follicle, by staining with hematoxylin-eosin (H&E). • Immunohistochemical evaluation of Cytokeratin 6 (CK6), wherein CK6 is a keratin type II present in the skin and the hair follicle, which has an important role in the formation of the intermediate filament and is involved in tissue remodeling during stress phenomena.
(§3) In order to observe the short- and long-term effect of the compositions mentioned above, the evaluation of the above parameters was made at 24H (T2) and 120H (T6) after the beginning of therapy.

[2] = system: type IV collagen (COLIV); experiment: Semi-quantitative determination of type IV collagen by immunofluorescence (confocal microscopy); settings: 120 H; duplicate (one row per replicate); Inositol 0.5%, Inositol + Arginine 0.25% + 0.25%
[3] = system: Cytokeratin 6 (CK6); experiment: Immunohistochemical evaluation of cytokeratin 6 in proto-follicle microtissues; settings: Inositol 0.5%, Inositol 0.25% + L-arginine 0.25%, Cyclosporin A 10 ng/mL; result in words
Description: as §1, §2, §3

In the case of `O[C@H]1[C@H](O)[C@@H](O)[C@H](O)[C@@H](O)[C@H]1O` [Inositol], the “morphological qualitative evaluation of micro-tissues (H&E)” value ([1]; T2 (24H)) is reported as “more compact lamellar structure”, the “morphological qualitative evaluation of micro-tissues (H&E)” value ([1]; T6 (120H), Cyclosporin A 10 ng/mL) is reported as “more compact lamellar structure” and the “semi-quantitative analysis of COLIV” value [2] is reported as 69 and 94. For the same molecule, the “follicular CK6 expression / proto-hair structure and coloring” value [3] was “not different from those shown by the samples treated with Cyclosporin A”.
